Values quoted from earlier work as cited in patent US20170215417A1, “ANTIMICROBIAL COMPOSITIONS” (LIVIONEX, Inc., priority 2013, published 2017).
Read-outs that look alike come from different tables or passages of the source.

How the values were obtained:
[1] = test system: Trichomichosis axillaris polymicrobial infection; conditions: for average time for resolution of the disease: then antimicrobial cream or lotion (Kim, Korean J Med Mycol. 2005)
[2] = @ 79° F.

water solubility [2] [% w/v] | Structure (SMILES) | irritation and contact dermatitis with standard treatment ([1]; standard treatment: shaving, then antimicrobial cream or lotion) | average time for resolution of the disease ([1]; standard treatment: shaving) [weeks] | irritation and contact dermatitis with standard treatment ([1]; human, in vivo)
– | O=C(OOC(=O)c1ccccc1)c1ccccc1 [benzoyl peroxide] | often results in irritation and contact dermatitis | 3 | –
– | CC[C@H]1OC(=O)[C@H](C)[C@@H](O[C@H]2C[C@@](C)(OC)[C@@H](O)[C@H](C)O2)[C@H](C)[C@@H](O[C@@H]2O[C@H](C)C[C@H](N(C)C)[C@H]2O)[C@](C)(O)C[C@@H](C)C(=O)[C@H](C)[C@@H](O)[C@]1(C)O [erythromycin] | – | 3 | often results in irritation and contact dermatitis
34 | CS(C)(=O)=O [MSM, methylsulfonylmethane] | – | – | –
